# Laboratory results taken from ChEMBL document CHEMBL3046469, “Fungicidal Activities of 2-(Substituted Phenoxymethyl)phenyl-2-methoxyiminoacaetamide Derivatives” (1998).
# Experiments:
# Assay type in all cases: functional
# Thanatephorus cucumeris [1] = assay: Fungicidal activity against Thanatephorus cucumeris assessed as rice sheath blight disease control at 125 ppm foliar application for 24 hr before inoculation at 26 +/- 2 degC measured after 5 days by preventive manner
# Botrytis cinerea [2] = assay: Fungicidal activity against Botryotinia fuckeliana assessed as cucumber gray mold disease control at 31.3 ppm foliar application […] at 22 +/- 2 degC by preventive manner
# [3] = tested on: Pseudoperonospora cubensis; assay: Fungicidal activity against Pseudoperonospora cubensis assessed as cucumber downy mildew disease control at 31.3 ppm foliar application 24 hr before inoculation onto the adaxial(treated) surface of leaf by preventive manner
# [4] = tested on: Pseudoperonospora cubensis; assay: Fungicidal activity against Pseudoperonospora cubensis assessed as cucumber downy mildew disease control at 125 ppm foliar application 24 hr before inoculation onto the abaxial(untreated) surface of leaf by preventive manner
# Pyricularia oryzae [5] = assay: Fungicidal activity against Magnaporthe oryzae assessed as rice blast disease control at 125 ppm foliar application for 24 hr before inoculation at 27 +/- 2 degC measured after 5 days by preventive manner
# Podosphaera fuliginea [6] = assay: Fungicidal activity against Podosphaera fuliginea assessed as cucumber powdery mildew control at 125 ppm foliar application 24 hr before inoculation at 23 +/- 2 degC by preventive manner
# [7] = tested on: Blumeria graminis f. sp. tritici; assay: Fungicidal activity against Blumeria graminis f. sp. tritici assessed as wheat powdery mildew disease control at 31.3 ppm foliar application for 48 hr before inoculation by preventive manner
# Podosphaera fuliginea [8] = assay: Fungicidal activity against Podosphaera fuliginea assessed as cucumber powdery mildew control at 125 ppm foliar application 24 hr after inoculation at 23 +/- 2 degC by curative manner
# Botrytis cinerea [9] = assay: Fungicidal activity against Botryotinia fuckeliana assessed as cucumber gray mold disease control at 125 ppm foliar application […] at 22 +/- 2 degC by curative manner
# [10] = tested on: Blumeria graminis f. sp. tritici; assay: Fungicidal activity against Blumeria graminis f. sp. tritici assessed as wheat powdery mildew disease control at 125 ppm foliar application for 48 hr before inoculation by preventive manner
# Pyricularia oryzae [11] = assay: Fungicidal activity against Magnaporthe oryzae assessed as rice blast disease control at 125 ppm foliar application for 24 hr after inoculation at 27 +/- 2 degC measured after 5 days by curative manner
# Podosphaera fuliginea [12] = assay: Fungicidal activity against Podosphaera fuliginea assessed as cucumber powdery mildew control at 31.3 ppm foliar application 24 hr before inoculation at 23 +/- 2 degC by preventive manner
# Botrytis cinerea [13] = assay: Fungicidal activity against Botryotinia fuckeliana assessed as cucumber gray mold disease control at 125 ppm foliar application […] at 22 +/- 2 degC by preventive manner
# [14] = tested on: Blumeria graminis f. sp. tritici; assay: Fungicidal activity against Blumeria graminis f. sp. tritici assessed as wheat powdery mildew disease control at 125 ppm foliar application for 48 hr after inoculation by curative manner
# Pyricularia oryzae [15] = assay: Fungicidal activity against Magnaporthe oryzae assessed as rice blast disease control at 7.8 ppm foliar application for 24 hr before inoculation at 27 +/- 2 degC measured after 5 days by preventive manner
# Podosphaera fuliginea [16] = assay: Fungicidal activity against Podosphaera fuliginea assessed as cucumber powdery mildew control at 7.8 ppm foliar application 24 hr before inoculation at 23 +/- 2 degC by preventive manner
# [17] = tested on: Blumeria graminis f. sp. tritici; assay: Fungicidal activity against Blumeria graminis f. sp. tritici assessed as wheat powdery mildew disease control at 2 ppm foliar application for 48 hr before inoculation by preventive manner
# Botrytis cinerea [18] = assay: Fungicidal activity against Botryotinia fuckeliana assessed as cucumber gray mold disease control at 7.8 ppm foliar application […] at 22 +/- 2 degC by preventive manner
# [19] = tested on: Pseudoperonospora cubensis; assay: Fungicidal activity against Pseudoperonospora cubensis assessed as cucumber downy mildew disease control at 2 ppm foliar application 24 hr before inoculation onto the adaxial(treated) surface of leaf by preventive manner
# Pyricularia oryzae [20] = assay: Fungicidal activity against Magnaporthe oryzae assessed as rice blast disease control at 2 ppm foliar application for 24 hr before inoculation at 27 +/- 2 degC measured after 5 days by preventive manner
# Podosphaera fuliginea [21] = assay: Fungicidal activity against Podosphaera fuliginea assessed as cucumber powdery mildew control at 2 ppm foliar application 24 hr before inoculation at 23 +/- 2 degC by preventive manner
# Thanatephorus cucumeris [22] = assay: Fungicidal activity against Thanatephorus cucumeris assessed as rice sheath blight disease control at 31.3 ppm foliar application for 24 hr before inoculation at 26 +/- 2 degC measured after 5 days by preventive manner
# Thanatephorus cucumeris [23] = assay: Fungicidal activity against Thanatephorus cucumeris assessed as rice sheath blight disease control at 7.8 ppm foliar application for 24 hr before inoculation at 26 +/- 2 degC measured after 5 days by preventive manner
# [24] = tested on: Pseudoperonospora cubensis; assay: Fungicidal activity against Pseudoperonospora cubensis assessed as cucumber downy mildew disease control at 7.8 ppm foliar application 24 hr before inoculation onto the adaxial(treated) surface of leaf by preventive manner
# [25] = tested on: Pseudoperonospora cubensis; assay: Fungicidal activity against Pseudoperonospora cubensis assessed as cucumber downy mildew disease control at 7.8 ppm foliar application 24 hr before inoculation onto the abaxial(untreated) surface of leaf by preventive manner
# Botrytis cinerea [26] = assay: Fungicidal activity against Botryotinia fuckeliana assessed as cucumber gray mold disease control at 2 ppm foliar application […] at 22 +/- 2 degC by preventive manner
# Pyricularia oryzae [27] = assay: Fungicidal activity against Magnaporthe oryzae assessed as rice blast disease control at 31.3 ppm foliar application for 24 hr before inoculation at 27 +/- 2 degC measured after 5 days by preventive manner
# Podosphaera fuliginea [28] = assay: Fungicidal activity against Podosphaera fuliginea assessed as cucumber powdery mildew control at 7.8 ppm foliar application 24 hr after inoculation at 23 +/- 2 degC by curative manner
# [29] = tested on: Pseudoperonospora cubensis; assay: Fungicidal activity against Pseudoperonospora cubensis assessed as cucumber downy mildew disease control at 125 ppm foliar application 24 hr before inoculation onto the adaxial(treated) surface of leaf by preventive manner
SMILES,Activity (Thanatephorus cucumeris [1]) [%],Activity (Botrytis cinerea [2]) [%],Activity [4] [%],Activity (Pyricularia oryzae [5]) [%],Activity (Podosphaera fuliginea [12]) [%],Activity (Pyricularia oryzae [15]) [%],Activity (Podosphaera fuliginea [16]) [%],Activity [17] [%],Activity (Botrytis cinerea [18]) [%],Activity [19] [%],further results
CNC(=O)/C(=N/OC)c1ccccc1COc1c(Cl)cc(Cl)cc1Cl,<90,90,<90,90,–,–,–,–,–,–,Activity [3]: 90%; Activity (Podosphaera fuliginea [6]): 90%; Activity [7]: 90%
CNC(=O)/C(=N\OC)c1ccccc1COc1ccc(-c2ccccc2)cc1,–,–,–,<90,90,–,–,–,–,–,Activity (Podosphaera fuliginea [8]): <90%; Activity (Botrytis cinerea [9]): <90%; Activity [10]: <90%; Activity (Pyricularia oryzae [11]): <90%; Activity (Botrytis cinerea [13]): <90%; Activity [14]: 90%
CNC(=O)/C(=N/OC)c1ccccc1COc1ccc(C)c(C)c1,90,–,90,–,–,90,90,90,90,90,–
CNC(=O)/C(=N/OC)c1ccccc1COc1ccccc1C,–,–,90,–,–,–,–,90,90,90,Activity (Pyricularia oryzae [20]): 90%; Activity (Podosphaera fuliginea [21]): 90%; Activity (Thanatephorus cucumeris [22]): 90%
CNC(=O)/C(=N/OC)c1ccccc1COc1ccccc1C(F)(F)F,–,90,90,–,–,–,90,90,–,–,Activity (Pyricularia oryzae [20]): 90%; Activity (Thanatephorus cucumeris [23]): 90%; Activity [24]: 90%
CNC(=O)/C(=N/OC)c1ccccc1COc1ccc(Cl)c(C)c1,<90,–,–,–,–,90,90,90,90,90,Activity [25]: 90%
CNC(=O)/C(=N/OC)c1ccccc1COc1cccc(N(C)C)c1,<90,90,<90,90,–,–,–,–,–,–,Activity [3]: 90%; Activity [10]: <90%; Activity (Podosphaera fuliginea [6]): <90%
CNC(=O)/C(=N/OC)c1ccccc1COc1cccc(C(F)(F)F)c1,90,–,–,–,–,90,90,90,90,–,Activity [25]: 90%; Activity [24]: 90%
CNC(=O)/C(=N/OC)c1ccccc1COc1ccc(Cl)cc1C,–,–,–,–,–,90,–,90,–,90,Activity (Podosphaera fuliginea [21]): 90%; Activity (Thanatephorus cucumeris [22]): 90%; Activity [25]: 90%; Activity (Botrytis cinerea [26]): 90%
CO/N=C(/C(=O)N(C)C)c1ccccc1COc1cc(C)ccc1C,–,–,–,–,90,–,–,–,–,–,Activity (Pyricularia oryzae [27]): 90%; Activity (Botrytis cinerea [9]): <90%; Activity (Podosphaera fuliginea [28]): 90%; Activity (Pyricularia oryzae [11]): 90%; Activity (Botrytis cinerea [13]): 90%
CNC(=O)/C(=N/OC)c1ccccc1COc1ccc(F)c(F)c1,<90,–,<90,–,90,–,–,–,90,–,Activity (Pyricularia oryzae [27]): 90%; Activity [29]: <90%; Activity [7]: 90%
CNC(=O)/C(=N/OC)c1ccccc1COc1c(Cl)ccc(Cl)c1Cl,<90,–,<90,90,–,–,–,–,–,–,Activity [3]: 90%; Activity [10]: 90%; Activity (Botrytis cinerea [13]): 90%; Activity (Podosphaera fuliginea [6]): 90%
CNC(=O)/C(=N/OC)c1ccccc1COc1cccc(C)c1C,90,90,90,–,90,–,–,–,–,90,Activity (Pyricularia oryzae [20]): 90%; Activity [7]: 90%
